Data as given in PubChem BioAssay AID248 (DTP/NCI, 2004).
Values joined by “and” are separate entries in the source; they are usually repeats but may differ in a detail not shown here. Equal values may be shown once. Toxic doses and inconclusive results are not listed. Rule as the data show it: active = T/C of 150% or more; inactive = T/C below 125%.

Test system: L1210 leukemia ip in BDF1 mice, survival T/C
Experiment: NCI In Vivo Anticancer Drug Screen. Data for tumor model L1210 Leukemia (intraperitoneal) in B6D2F1 (BDF1) mice
Conditions: endpoint: mean survival time, higher = longer survival
In short: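 Transplantable tumor model; survival measured in treated vs vehicle control mice. Value = treated/control.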

[1] = dose: 100.0 mg/kg/injection, schedule: Q01DX001 (ip), vehicle: Klucel (hydroxypropylcellulose) (HPC)
[2] = dose: 200.0 mg/kg/injection, schedule: Q01DX001 (ip), vehicle: Klucel (hydroxypropylcellulose) (HPC)
[3] = dose: 400.0 mg/kg/injection, schedule: Q01DX001 (ip), vehicle: Klucel (hydroxypropylcellulose) (HPC)
[4] = dose: 150.0 mg/kg/injection, schedule: Q01DX001 (ip), vehicle: saline
[5] = dose: 100.0 mg/kg/injection, schedule: Q04DX003 (ip), vehicle: Klucel (hydroxypropylcellulose) (HPC)
[6] = dose: 200.0 mg/kg/injection, schedule: Q04DX003 (ip), vehicle: Klucel (hydroxypropylcellulose) (HPC)
[7] = dose: 50.0 mg/kg/injection, schedule: Q01DX001 (ip), vehicle: carboxymethylcellulose (CMC)
[8] = dose: 100.0 mg/kg/injection, schedule: Q01DX001 (ip), vehicle: carboxymethylcellulose (CMC)
[9] = dose: 200.0 mg/kg/injection, schedule: Q01DX001 (ip), vehicle: carboxymethylcellulose (CMC)
[10] = dose: 400.0 mg/kg/injection, schedule: Q01DX001 (ip), vehicle: carboxymethylcellulose (CMC)
[11] = dose: 100.0 mg/kg/injection, schedule: Q04DX002 (ip), vehicle: saline with Tween-80
[12] = dose: 200.0 mg/kg/injection, schedule: Q04DX002 (ip), vehicle: saline with Tween-80
[13] = dose: 400.0 mg/kg/injection, schedule: Q04DX002 (ip), vehicle: saline with Tween-80
[14] = dose: 100.0 mg/kg/injection, schedule: Q01DX001 (ip), vehicle: saline
[15] = dose: 200.0 mg/kg/injection, schedule: Q01DX001 (ip), vehicle: saline
[16] = dose: 400.0 mg/kg/injection, schedule: Q01DX001 (ip), vehicle: saline
[17] = dose: 100.0 mg/kg/injection, schedule: Q04DX002 (ip), vehicle: Klucel (hydroxypropylcellulose) (HPC)
[18] = dose: 200.0 mg/kg/injection, schedule: Q04DX002 (ip), vehicle: Klucel (hydroxypropylcellulose) (HPC)
[19] = dose: 400.0 mg/kg/injection, schedule: Q04DX002 (ip), vehicle: Klucel (hydroxypropylcellulose) (HPC)
[20] = dose: 100.0 mg/kg/injection, schedule: Q04DX003 (ip), vehicle: saline with Tween-80
[21] = dose: 100.0 mg/kg/injection, schedule: Q01DX009 (ip), vehicle: saline with Tween-80
[22] = dose: 200.0 mg/kg/injection, schedule: Q01DX009 (ip), vehicle: saline with Tween-80
[23] = dose: 400.0 mg/kg/injection, schedule: Q01DX009 (ip), vehicle: saline with Tween-80
[24] = dose: 100.0 mg/kg/injection, schedule: Q01DX009 (ip), vehicle: Klucel (hydroxypropylcellulose) (HPC)

Measured: T/C

O=C1C=CC(=O)N1CN1CCOCC1 (tested in a mixture with another compound)
inactive: dose: 6.25 mg/kg/injection, schedule: Q01DX009 (ip), vehicle: saline 92 % of control | dose: 12.5 mg/kg/injection, schedule: Q01DX009 (ip), vehicle: saline 100 % of control | [1] 103 % of control and 100 % of control | [2] 103 % of control and 100 % of control and 97 % of control | [3] 95 % of control [middle of 4 runs]

Clc1ccc(CNc2ccccn2)s1
inactive: [4] 88 % of control

COc1ccc2c(c1)NP(=S)(c1ccccc1)N2 (centres undefined)
inactive: dose: 50.0 mg/kg/injection, schedule: Q01DX001 (ip), vehicle: gum acacia 101 % of control | dose: 100.0 mg/kg/injection, schedule: Q01DX001 (ip), vehicle: gum acacia 91 % of control | dose: 100.0 mg/kg/injection, schedule: Q01DX009 (ip), vehicle: gum acacia 91 % of control | dose: 200.0 mg/kg/injection, schedule: Q01DX001 (ip), vehicle: gum acacia 100 % of control | dose: 200.0 mg/kg/injection, schedule: Q01DX009 (ip), vehicle: gum acacia 91 % of control | dose: 400.0 mg/kg/injection, schedule: Q01DX009 (ip), vehicle: gum acacia 91 % of control

CC(C)(C)NNC(C)(C)C
inactive: dose: 9.38 mg/kg/injection, schedule: Q01DX001 (ip), vehicle: other 102 % of control | dose: 18.75 mg/kg/injection, schedule: Q01DX001 (ip), vehicle: other 96 % of control | dose: 37.5 mg/kg/injection, schedule: Q01DX001 (ip), vehicle: other 96 % of control

O=[N+]([O-])c1ccc(/C=C/c2ncc[nH]2)o1
inactive: [5] 92 % of control | [6] 92 % of control

O=[N+]([O-])c1ccc(CCBr)cc1
inactive: [7] 96 % of control | [8] 94 % of control | [9] 100 % of control | [10] 105 % of control

Cl[C](Cl)([Pb]([c]1ccccc1)([c]1ccccc1)[c]1ccccc1)[Pb]([c]1ccccc1)([c]1ccccc1)[c]1ccccc1
inactive: [11] 98 % of control | [12] 94 % of control | [13] 90 % of control

Nc1ccc(C(=O)OCCCCC2CCCC2N)cc1 (centres undefined)
inactive: dose: 75.0 mg/kg/injection, schedule: Q01DX001 (ip), vehicle: saline 97 % of control | [4] 113 % of control

COc1c(Br)c(-c2ccccc2)nc2ccccc12
inactive: [14] 100 % of control | [15] 88 % of control | [16] 92 % of control

CC(=O)OCC(O)C(O)C(O)C(O)C=O (centres undefined) (tested in a mixture with another compound)
inactive: [17] 92 % of control | [18] 103 % of control | [19] 95 % of control

COC1OC2COC(c3ccccc3)OC2C(OC(=S)N(C)C)C1OC(=S)N(C)C (centres undefined)
inactive: dose: 100.0 mg/kg/injection, schedule: Q04DX003 (ip), vehicle: saline sonified 94 % of control | dose: 200.0 mg/kg/injection, schedule: Q04DX003 (ip), vehicle: saline sonified 92 % of control | dose: 400.0 mg/kg/injection, schedule: Q04DX003 (ip), vehicle: saline sonified 92 % of control

CCOC(=O)/C=C(C)/C=C/C1=C(C)CCCC1(C)C
inactive: [20] 102 % of control | dose: 200.0 mg/kg/injection, schedule: Q04DX003 (ip), vehicle: saline with Tween-80 96 % of control | dose: 400.0 mg/kg/injection, schedule: Q04DX003 (ip), vehicle: saline with Tween-80 108 % of control

COC1C(O)C(O)OC(CO)C1O (centres undefined)
inactive: dose: 50.0 mg/kg/injection, schedule: Q04DX003 (ip), vehicle: saline 112 % of control | dose: 100.0 mg/kg/injection, schedule: Q04DX003 (ip), vehicle: saline 96 % of control | dose: 200.0 mg/kg/injection, schedule: Q04DX003 (ip), vehicle: saline 104 % of control | dose: 400.0 mg/kg/injection, schedule: Q04DX003 (ip), vehicle: saline 96 % of control | dose: 500.0 mg/kg/injection, schedule: Q01DX009 (ip), vehicle: saline 94 % of control | dose: 1000.0 mg/kg/injection, schedule: Q01DX009 (ip), vehicle: saline 104 % of control

Cc1ccc([N+](=O)[O-])cc1NC(=O)c1ccccc1
inactive: [8] 93 % of control | [9] 96 % of control | [10] 93 % of control

Cc1cccc(Cl)c1NC(=O)CS
inactive: [21] 104 % of control | [22] 101 % of control | [23] 106 % of control

CN(C)c1ccc(C=Nc2ccc(Cl)cc2)cc1
inactive: [1] 91 % of control | [5] 93 % of control | [2] 93 % of control | [6] 91 % of control | [3] 90 % of control | dose: 400.0 mg/kg/injection, schedule: Q04DX003 (ip), vehicle: Klucel (hydroxypropylcellulose) (HPC) 91 % of control

CC(=O)Nc1ccc(OC(C)=O)cc1[N+](=O)[O-]
inactive: [14] 105 % of control | [15] 102 % of control | [16] 102 % of control

COc1ccc(OC)c(NC(=O)c2cccc(F)c2)c1
inactive: [24] 97 % of control | dose: 200.0 mg/kg/injection, schedule: Q01DX009 (ip), vehicle: Klucel (hydroxypropylcellulose) (HPC) 101 % of control | dose: 400.0 mg/kg/injection, schedule: Q01DX009 (ip), vehicle: Klucel (hydroxypropylcellulose) (HPC) 100 % of control

CCOC(=O)NCC(C)(CCN1CCOCC1)c1cccc2ccccc12 (centres undefined)
inactive: dose: 25.0 mg/kg/injection, schedule: Q04DX003 (ip), vehicle: saline with Tween-80 93 % of control | dose: 50.0 mg/kg/injection, schedule: Q04DX003 (ip), vehicle: saline with Tween-80 97 % of control | [24] 94 % of control | [20] 103 % of control

COc1cc2c(cc1OC)-c1cc3cc(OC)c(OC)cc3c(C)[n+]1CC2
inactive: dose: 12.5 mg/kg/injection, schedule: Q04DX002 (ip), vehicle: Klucel (hydroxypropylcellulose) (HPC) 102 % of control | dose: 25.0 mg/kg/injection, schedule: Q04DX002 (ip), vehicle: Klucel (hydroxypropylcellulose) (HPC) 105 % of control | dose: 50.0 mg/kg/injection, schedule: Q04DX002 (ip), vehicle: Klucel (hydroxypropylcellulose) (HPC) 105 % of control

OC(COc1c(Cl)c(Cl)c(Cl)c(Cl)c1Cl)CN1CCN(c2ccccc2Cl)CC1 (centres undefined)
inactive: [14] 95 % of control | [15] 92 % of control | [16] 92 % of control

O=C(O)c1ccc2c(c1)C(=O)c1ccccc1C2=O
inactive: [11] 105 % of control | [12] 99 % of control

CC1=C/C(=N\N2CCCCCC2)C(C(O)(C(F)(F)F)C(F)(F)F)C(C)(C)C1 (centres undefined)
inactive: dose: 50.0 mg/kg/injection, schedule: Q01DX009 (ip), vehicle: saline with Tween-80 90 % of control | [21] 96 % of control | [22] 86 % of control | [23] 88 % of control

CC(=O)O[C@H]1CC[C@@]2(C)[C@@H](CC[C@@H]3[C@@H]2CC[C@]2(C)[C@@H](C(C)=O)CC[C@@H]32)C1
inactive: [17] 96 % of control | [18] 96 % of control | [19] 96 % of control

Cc1cc(S(=O)(=O)c2cc(C)c(O)c(C(N)=O)c2)cc(C(N)=O)c1O
inactive: dose: 100.0 mg/kg/injection, schedule: Q04DX002 (ip), vehicle: carboxymethylcellulose (CMC) 95 % of control | dose: 200.0 mg/kg/injection, schedule: Q04DX002 (ip), vehicle: carboxymethylcellulose (CMC) 103 % of control | dose: 400.0 mg/kg/injection, schedule: Q04DX002 (ip), vehicle: carboxymethylcellulose (CMC) 98 % of control

CN1C(=O)NC(C)(CCOCc2ccccc2)C1=O (centres undefined)
inactive: [7] 96 % of control | [8] 107 % of control | [9] 100 % of control | [10] 100 % of control

NC(=O)C1CN1Cc1ccccc1 (centres undefined)
inactive: [21] 97 % of control | [22] 95 % of control | [23] 89 % of control

O=C(Nc1cc(C(F)(F)F)ccc1Cl)c1ccccc1F
inactive: [11] 102 % of control | [12] 102 % of control | [13] 108 % of control
